Experiments:
LSD1 [1] = molecular target: T1, LSD1 (Homo sapiens, UniProt O60341); assay: LSD1 fluorescence coupling enzyme assay (Reaction Biology Corporation); assay type: biochemical; conditions: Reaction Biology Corp., 30 min pre-incubation, 10 μM histone H3(1-21)K4me2 peptide substrate; read-out: IC50, LSD1 demethylase activity
T1 construct: Reaction Biology Corporation (performed the assay)
Protocol: The inhibitory activity of HCl 489479, OLC, and OLP was measured using a fluorescence coupling enzyme assay (performed by Reaction Biology Corporation). […] All compounds were pre-incubated for 30 min with the enzyme before the addition of 10 μM histone H3(1-21)K4me2 peptide substrate to start the reaction. Fluorescence was measured using an EnVision Multimode Plate Reader at Ex/Em = 535/590.

purified MAO-A = molecular target: T2, purified MAO-A (Homo sapiens, UniProt P21397); assay: MAO-A direct screening assay (inhibitor screening kit); assay type: biochemical; conditions: purified enzyme; read-out: IC50, inhibition of MAO-A
T2 construct: purchased Sigma-Aldrich MAK295
T2 sequence (P21397 1-527): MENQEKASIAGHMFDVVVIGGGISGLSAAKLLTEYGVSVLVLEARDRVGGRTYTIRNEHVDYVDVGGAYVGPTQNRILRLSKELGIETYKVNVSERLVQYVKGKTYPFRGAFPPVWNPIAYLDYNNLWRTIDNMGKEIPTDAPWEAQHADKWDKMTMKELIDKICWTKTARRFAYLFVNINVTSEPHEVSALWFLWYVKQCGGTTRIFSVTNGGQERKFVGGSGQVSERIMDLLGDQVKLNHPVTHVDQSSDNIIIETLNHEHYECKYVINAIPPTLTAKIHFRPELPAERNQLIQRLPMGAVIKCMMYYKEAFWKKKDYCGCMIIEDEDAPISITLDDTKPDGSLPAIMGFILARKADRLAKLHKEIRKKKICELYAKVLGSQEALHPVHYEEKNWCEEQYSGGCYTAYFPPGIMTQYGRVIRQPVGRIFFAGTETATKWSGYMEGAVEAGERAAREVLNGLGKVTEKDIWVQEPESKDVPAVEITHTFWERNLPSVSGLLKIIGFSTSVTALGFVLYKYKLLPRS
Protocol: The assays were conducted for MAO-A and MAO-B according to the manufacturer’s instructions.

LSD1 [2] = test system: T3, LSD1; assay: LSD1 activity in nuclear extracts of BJ cells stimulated with DEX; assay type: cell-based, human; conditions: DEX 50 μM 72 h, then TCP 5 μM or OLP, HT, HTA 50 μM for 48 h
T3 construct: nuclear proteins extracted from the BJ cultures were directly assayed for LSD1 activity; endogenous in cells; host or cells: BJ human foreskin fibroblasts (nuclear extract, DEX-stimulated)
Protocol: Histone demethylase LSD1 activity assay
4µL of nuclear extracts containing 5µg protein was added to designated strip wells with stably
captured LSD1 substrate (H3K4me2), followed by an additional 26µL of H3K4me2 (HG3)
substrate diluted in assay buffer (HG2). In no enzyme control wells, the 4µL of nuclear
extracts was replaced with 4µL of assay buffer. Blank wells contained 30µL of assay buffer.
A standard curve was generated by adding 1µL of standard (HG4) at incrementally increasing
concentrations (0.1-10ng/µL) to 29µL of assay buffer in designated standard wells. After all
wells were loaded appropriately, the assay plate was incubated away from light at room
temperature for 60 minutes. Following incubation, contents were aspirated and wells were
washed three times with 150µL of wash buffer (HG1). 50µL of capture antibody (HG5)
diluted at a 1:1000 ratio was then added to all wells before incubating at room temperature
for 60 minutes on a rotating platform. Well contents were then aspirated and washed four
times with 150µL of wash buffer. 50µL of detection antibody (HG6) diluted at a 1:1000 ration
was then added to each well. Assay plate was then incubated for a final time at room
temperature for 30 minutes. Well contents were aspirated again, followed by six washes with
150µL wash buffer. 50µL of fluoro-developer (HG7) was then added into each well and
allowed to develop away from light for 1-5 minutes. Fluorescence was then read on a
CLARIOstar Microplate Reader (BMG Labtech, Ortenberg Germany) at Ex/Em =

H3K4 mono-methylation = H3K4 mono-methylation in BJ cells (Western blotting); assay type: cell-based, human; conditions: 50 μM, 48 h, compared to untreated cells; effects more pronounced with DEX
Protocol: As described in the Supplementary Information, nuclear proteins extracted from the BJ cultures were directly assayed for LSD1 activity (Epigentek P-3076, Farmingdale, NY, USA). Fluorescence was read on a CLARIOstar Microplate Reader (BMG Labtech, Ortenberg, Germany) at Ex/Em = 530/590 nm (Figure S4). Histone proteins were extracted from the treated cultures and were analysed through Western blotting. The mono-methylation status of lysine on histone 3 (H3K4) was determined via immunodetection (Table S6).
100µL of Nuclear Extraction Buffer containing 0.2µL 1M DTT and 0.4µL PIC was then added to the remaining nuclei-containing pellets. Full resuspension was achieved through multiple rounds of vigorous vortexing and ice incubations (to maintain protein integrity). Once the entire pellet was visibly resuspended in NEB, tubes were centrifuged at 16,000g for 10 minutes. The resulting supernatant containing the nuclear extract fraction was transferred to clean 0.5mL tubes and stored at -80°C.
Acid extraction of histone proteins
Cells were washed in 10mL of pre-chilled PBS (1X) and detached from flask surface via mechanical disruption using a cell scraper. Cell solution was then transferred into a 15mL tube and centrifuged at 150g for 10 minutes. Supernatant was then discarded and the remaining cell pellet resuspended in 0.5mL PBS (1X) and transferred into a 1.5mL microcentrifuge tube. Cells were then centrifuged at 9400g for 20 seconds, after which the supernatant was removed and discarded. The remaining pellet was then briefly resuspended in 600µL of acid extraction lysis buffer (10mM KCl, 10mM HEPES, […]) containing cOmplete™ Mini Protease Inhibitor Cocktail (Sigma-Aldrich, Roche 11836153001, MO USA) and 0.3µL 1M DTT. This will cause cells to pre-swell, resulting in a reduced amount of PBS (1X) remaining in the microcentrifuge tube that may deter maximal cell lysis capacity. Cells were then centrifuged at 9400g for 20 seconds with the resultant supernatant aspirated and discarded. […]

`COC(=O)[C@H](O)CC(=O)OCCc1ccc(O)c(O)c1` [OLP, oleohydroxypyretol] was tested, and the IC50 (LSD1 [1]) was 0.12 µM, the IC50 (purified MAO-A) was 0.85 µM and the “LSD1 activity in BJ cultures stimulated with DEX” value (LSD1 [2]) was “significant reduction”. For the same compound, the “baseline levels of H3K4 mono-methylation in BJ cells” value (H3K4 mono-methylation) was “increased”.

— publication PMC11173677, “Identification and Evaluation of Olive Phenolics in the Context of Amine Oxidase Enzyme Inhibition and Depression: In Silico Modelling and In Vitro Validation” (Molecules, 2024)
